In patent publication US12635691B2, “Fipronil containing insecticide gels” (Henkel AG & Co. KGaA, priority 2022, dated 2026):
Entries after “also recorded” stand apart in the source; their conditions may differ.

Assay: Migration of fipronil from the gel formula into the container, by container material
Assay type: physicochemical
Description: When the products are formulated in a gel medium, they are often packaged in the forms of capsules, syringes, or adhesive strips. The packaging materials frequently contain plastics. […] Such plastics may include, but are not limited to, polystyrene/butadiene blend, polyethylene (PE) thermoformed, or PET/PE copolymer […].
Fipronil has a solubility in water around 0.002 g/l (20° C.). At a level of […], fipronil is soluble in the water-based matrix because its solubility in water is 0.002 g/l (20° C., BASF SDS). However, although being soluble in the formula, fipronil tends to migrate, under room temperature conditions and in high temperatures (tested up to 54° C.), into the container (i.e., plastic packaging) depending on the material that the container is made of: • a. […] PET/PE thermoformed→Migration • c. Polyethylene thermoform→Migration • d. Polyethylene injected→No migration • e. Polystyrene→No migration • f. Polystyrene/Butadiene (4%)→migration

N#Cc1nn(-c2c(Cl)cc(C(F)(F)F)cc2Cl)c(N)c1[S+]([O-])C(F)(F)F (stereo not drawn) [Fipronil, 1-[2,6-Cl2 4-CF3 phenyl] 3-CN 4-[SO—CF3] 5-NH2 pyrazole]
Migration of fipronil into the container (container: Glass (used as reference), room temperature and high temperatures (tested up to 54° C.)): No migration, formula stable; also recorded: no fipronil migration | Migration of fipronil into the container (container: PET/PE thermoformed, room temperature and up to 54° C.): Migration | Migration of fipronil into the container (container: Polyethylene injected, room temperature and up to 54° C.): No migration | Migration of fipronil into the container (container: Polyethylene thermoform, room temperature and up to 54° C.): Migration | Migration of fipronil into the container (container: Polystyrene/Butadiene (4%), room temperature and up to 54° C.): migration | Migration of fipronil into the container (container: Polystyrene, room temperature and up to 54° C.): No migration
